Assay results taken from patent publication US4879384A, “Preparation of thiocycloalkno [3,2-b] pyridines” (Ortho Pharmaceutical Corporation, priority 1988, dated 1989).
Where two headings read alike, the source gives them in different places. Values belong to the compound of their own block, whether it stands above or below them.

What was measured:
calcium channels = biological target: T1, calcium channels (Oryctolagus cuniculus, UniProt P15381); assay: Inhibition of nitrendipine binding to calcium channels; type: New Zealand white rabbit (heart membranes); details: for IC50: Table II
T1 construct: from tissue; host or cells: rabbit heart membranes (female New Zealand white rabbits; 42,000 xg pellet)
Protocol: (1) Inhibition of nitrendipine binding to calcium channels.
The assay for inhibition of nitrendipine binding follows the following procedure:
Female, New Zealand white rabbits (1-2 kg) are sacrificed by cervical dislocation, and the heart is immediately removed, cleaned, and chopped into small pieces. The tissue is homogenized in 5X volume of 0.05M Hepes buffer, pH 7.4. The homogenate is centrifuged at 4000 xg for 10 minutes; the supernatant is recentrifuged at 42,000 xg for 90 minutes. The resulting membrane pellet is resuspended (0.7 ml/g weight) in 0.05M Hepes, pH 7.4 and stored at -70° C. until used. Each tube of the binding assay contains ^3 H-nitrendipine (0.05-0.50nM), buffer, membranes (0.10 ml), and test compound in a total volume of 1.0 ml. After 90 minutes at 4° C., the bound nitrendipine is separated from the unbound by filtration on Whatman GF/C fibers. After rinsing, the filters are dried and counted in a liquid scintillation counter.
Non-specific binding of ^3 H-nitrendipine (that amount bound in the presence of excess unlabelled nitrendipine) is subtracted from the total bound to obtain specifically bound radiolabeled nitrendipine. The amount of specifically bound nitrendipine in the presence of a test compound is compared to that amount bound in the absence of a compound. A percent displacement (or inhibition) can then be obtained.

Trachea Muscle = assay: Inhibition of calcium dependent smooth muscle contraction (trachea); type: cell-based, dog; details: Table II; concentration 0.3 μM
Protocol: The test for inhibition of calcium dependent smooth muscle contraction is determined according to the following procedure:
Trachea from dogs sacrificed by excess KCl injection are stored overnight at 4° C. in oxygenated Krebs-Henseleit buffer. Tracheal rings, one cartilage segment wide (5-10 mm), are cut starting from the bronchial end. After cutting the cartilage, the trachealis muscle tissue is suspended in oxygenated Krebs-Henseleit buffer at 37° C. in a 25 ml tissue bath. After a 60 minutes equilibration period, the tissues are challenged with 10 uM carbachol. After 5 minutes the tissues are rinsed and allowed to rest 50 minutes. The tissues are then challenged with 50 mM KCl and, after 30 minutes, the contractions are quantitated. The tissues are then rinsed and reequilibrated for 50 minutes. Test compounds are then added for 10 minutes, and the tissue is rechallenged with 50 mMKcl. After 30 minutes, the contraction is recorded and used to determine the % inhibition of control.
The percent inhibition of smooth muscle contracting is calculated from response data before and after drug treatment. [formula] A rating is assigned to the compound depending upon the percent inhibition obtained.

T1 sequence (P15381 whole entry, other chains not shown): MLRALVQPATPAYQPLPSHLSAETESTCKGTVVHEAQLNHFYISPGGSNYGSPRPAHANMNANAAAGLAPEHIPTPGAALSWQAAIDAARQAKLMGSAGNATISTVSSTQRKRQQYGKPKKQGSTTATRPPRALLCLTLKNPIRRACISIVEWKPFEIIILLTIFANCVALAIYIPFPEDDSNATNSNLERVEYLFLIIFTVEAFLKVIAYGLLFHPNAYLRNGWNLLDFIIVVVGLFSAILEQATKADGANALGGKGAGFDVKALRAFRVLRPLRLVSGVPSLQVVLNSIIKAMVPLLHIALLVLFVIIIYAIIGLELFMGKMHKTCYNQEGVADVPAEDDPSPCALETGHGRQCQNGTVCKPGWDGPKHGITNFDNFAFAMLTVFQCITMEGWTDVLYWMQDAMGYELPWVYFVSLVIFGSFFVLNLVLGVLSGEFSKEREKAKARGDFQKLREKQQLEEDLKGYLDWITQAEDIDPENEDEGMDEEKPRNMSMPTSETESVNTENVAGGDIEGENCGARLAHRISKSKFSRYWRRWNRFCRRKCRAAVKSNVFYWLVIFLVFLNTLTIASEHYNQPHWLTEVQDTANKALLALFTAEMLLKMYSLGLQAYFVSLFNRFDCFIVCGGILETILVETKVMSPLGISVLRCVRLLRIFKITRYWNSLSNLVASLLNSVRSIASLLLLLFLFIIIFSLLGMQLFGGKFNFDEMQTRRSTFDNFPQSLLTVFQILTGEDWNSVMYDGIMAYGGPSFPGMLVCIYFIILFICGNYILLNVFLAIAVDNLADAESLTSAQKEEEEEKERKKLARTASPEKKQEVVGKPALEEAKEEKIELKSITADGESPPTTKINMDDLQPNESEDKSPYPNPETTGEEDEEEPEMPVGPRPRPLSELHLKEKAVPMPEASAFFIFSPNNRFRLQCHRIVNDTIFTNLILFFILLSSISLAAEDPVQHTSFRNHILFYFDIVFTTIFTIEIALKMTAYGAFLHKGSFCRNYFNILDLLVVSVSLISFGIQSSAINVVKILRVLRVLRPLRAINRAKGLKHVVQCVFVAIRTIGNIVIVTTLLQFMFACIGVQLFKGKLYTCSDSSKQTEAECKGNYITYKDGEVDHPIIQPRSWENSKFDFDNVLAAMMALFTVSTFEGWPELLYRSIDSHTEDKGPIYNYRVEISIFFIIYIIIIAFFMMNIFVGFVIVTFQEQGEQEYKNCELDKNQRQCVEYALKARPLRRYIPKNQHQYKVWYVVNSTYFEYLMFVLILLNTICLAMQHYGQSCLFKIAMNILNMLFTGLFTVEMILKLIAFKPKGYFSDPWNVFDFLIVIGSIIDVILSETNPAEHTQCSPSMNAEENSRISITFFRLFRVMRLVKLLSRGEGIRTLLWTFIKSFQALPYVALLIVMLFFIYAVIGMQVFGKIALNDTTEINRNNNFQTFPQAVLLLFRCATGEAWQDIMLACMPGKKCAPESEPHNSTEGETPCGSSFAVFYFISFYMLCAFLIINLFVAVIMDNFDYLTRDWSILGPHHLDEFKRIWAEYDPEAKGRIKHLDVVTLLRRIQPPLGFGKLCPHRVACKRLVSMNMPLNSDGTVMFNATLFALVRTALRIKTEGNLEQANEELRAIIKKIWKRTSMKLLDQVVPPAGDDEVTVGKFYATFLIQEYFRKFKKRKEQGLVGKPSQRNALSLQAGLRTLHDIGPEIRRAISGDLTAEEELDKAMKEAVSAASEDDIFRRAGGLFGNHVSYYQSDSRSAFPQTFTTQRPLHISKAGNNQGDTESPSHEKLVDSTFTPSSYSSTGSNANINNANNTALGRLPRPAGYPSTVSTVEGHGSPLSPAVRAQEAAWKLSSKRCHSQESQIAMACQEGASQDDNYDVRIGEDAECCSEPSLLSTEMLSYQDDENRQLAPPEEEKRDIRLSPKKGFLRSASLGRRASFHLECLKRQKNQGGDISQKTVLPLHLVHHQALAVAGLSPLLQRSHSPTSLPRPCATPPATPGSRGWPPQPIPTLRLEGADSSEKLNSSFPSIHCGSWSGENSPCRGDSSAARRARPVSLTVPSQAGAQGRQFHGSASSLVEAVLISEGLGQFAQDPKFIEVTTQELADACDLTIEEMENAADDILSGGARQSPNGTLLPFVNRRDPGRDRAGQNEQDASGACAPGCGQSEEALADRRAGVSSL
T1 sequence (P13806 27-960 partner limits assumed, other chains not shown): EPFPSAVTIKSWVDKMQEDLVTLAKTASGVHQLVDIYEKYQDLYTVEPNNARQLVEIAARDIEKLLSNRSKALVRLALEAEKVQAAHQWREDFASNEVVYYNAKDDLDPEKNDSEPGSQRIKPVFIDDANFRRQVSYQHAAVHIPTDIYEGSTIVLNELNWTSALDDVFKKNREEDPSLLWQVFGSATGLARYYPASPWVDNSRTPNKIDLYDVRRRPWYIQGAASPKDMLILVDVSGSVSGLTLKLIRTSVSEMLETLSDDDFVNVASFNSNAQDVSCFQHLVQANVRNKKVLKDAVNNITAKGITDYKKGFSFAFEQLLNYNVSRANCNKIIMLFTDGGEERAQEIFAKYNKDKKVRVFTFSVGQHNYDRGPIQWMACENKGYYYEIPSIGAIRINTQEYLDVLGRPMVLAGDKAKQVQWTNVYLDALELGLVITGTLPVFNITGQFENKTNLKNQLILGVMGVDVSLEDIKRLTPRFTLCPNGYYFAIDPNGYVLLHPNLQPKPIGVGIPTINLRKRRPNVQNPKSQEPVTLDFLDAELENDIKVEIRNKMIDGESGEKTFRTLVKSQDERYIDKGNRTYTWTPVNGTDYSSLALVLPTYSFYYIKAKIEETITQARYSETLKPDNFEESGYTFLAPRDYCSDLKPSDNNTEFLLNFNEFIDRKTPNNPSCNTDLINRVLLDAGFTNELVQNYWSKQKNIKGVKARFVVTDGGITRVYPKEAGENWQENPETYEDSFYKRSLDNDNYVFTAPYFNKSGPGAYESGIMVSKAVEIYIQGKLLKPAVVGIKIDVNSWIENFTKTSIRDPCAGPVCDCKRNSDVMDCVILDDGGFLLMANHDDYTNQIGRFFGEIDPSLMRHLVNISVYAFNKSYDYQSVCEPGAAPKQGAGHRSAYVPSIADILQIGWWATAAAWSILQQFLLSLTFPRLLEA
T1 sequence (P13806 961-1106 partner limits assumed, other chains not shown): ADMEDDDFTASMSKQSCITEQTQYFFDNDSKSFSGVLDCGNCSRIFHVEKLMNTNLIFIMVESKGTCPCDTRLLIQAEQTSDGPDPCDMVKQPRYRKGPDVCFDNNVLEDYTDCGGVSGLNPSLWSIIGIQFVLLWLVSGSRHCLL

- Inhibition of Nitrendipine binding (percent at stated concentration) (calcium channels; Table I, @ 8.0): 56%
SMILES: COC(=O)C1=C(C)NC2(O)CCS(=O)(=O)C2C1c1ccccc1[N+](=O)[O-] (stereo not shown) [Methyl 2,3,3a,4,7,7a-hexahydro-3a-hydroxy-5-methyl-7-(2-nitrophenyl)-1,1-dioxo-thieno[3,2-b]pyridine-6-carboxylate]

- IC50 (calcium channels; first part, read-out: Inhibition of Nitrendipine binding IC50): 108 nM
SMILES: CCOC(=O)C1=C(C)NC2=C(C1c1cccnc1SC)S(=O)(=O)CCCCC2 (stereo not shown) [drawing 8 CH2 CH3]
- Inhibition of Trachea Muscle Contraction, % Inhibition (Trachea Muscle): 79%

- IC50 (calcium channels; second part, read-out: Inhibition Nitrendipine binding IC^50): 110 nM
SMILES: CC1=C(C(=O)OCCN(C)Cc2ccccc2)C(c2ccccc2[N+](=O)[O-])C2=C(CCCCCS2(=O)=O)N1 (stereo not shown) [5 2-NO2 C6 H4 CH2 CH2 NCH3 CH2 C6 H5]
